Experiments:
Sm.5HTR = Sm.5HTR (Schistosoma mansoni, UniProt G4V5G4); type: cell-based
Description: (§1) HEK293 cells (ATCC CRL-1573.3) were cultured in DMEM supplemented with 10% fetal bovine serum (FBS), penicillin (100 units/mL), streptomycin (100 μg/mL), and L-glutamine (290 μg/mL). Cells were transiently transfected (ViaFect, Promega) as per the manufacturer's protocol at a density of 2×10^6 cells per T-25 cell-culture flask. Cells were transfected with plasmids encoding GloSensor (Promega) and either Sm.5HTR, (Smp_126730, GenBank accession number KF444051.1) or Sm.5HTRL (KX150867), both GPCRs being codon optimized for mammalian expression, or Hs.5HT7a (GenBank accession number NM_000872.4, R&D Systems) subcloned into pCS2(−). Cell culture reagents were from Invitrogen. Epitope tagged constructs were used to verify expression, and untagged constructs used for all luminescence assays.
(§2) For assays performed on adherent cells, HEK-293 cells were transferred one day post transfection to 96 well, solid white plates (Corning, cat #3917) coated with 0.01% poly-L-lysine (Sigma Aldrich) at a density of 5×10^4 cells/well in DMEM supplemented with 1% dialyzed FBS (Gibco). After overnight culture (37° C./5% CO2), media was decanted and replaced with 100 μL/well HBSS supplemented with 0.1% BSA, 20 mM HEPES (pH 7.4) and GloSensor™ reagent. Plates were allowed to equilibrate at room temperature for two hours prior to performing luminescence assays (GloMax-Multi Detection System plate reader, Promega). Conditions for individual assays were described as per figure legends. The standard assay to detect changes in cAMP utilized the F22 sensor in media supplemented with IBMX (200 μM). Ligands were added at a concentration of 20× per well for experiments (i.e., 5 μl of drug solution added to 100 μL of cells). […] For the resazurin reduction assay for cellular viability, cells were incubated with resazurin (final concentration, 10 μM) and tested ligands with fluorescence measurements (560 nm excitation/590 nm emission) made at 1.5 hours intervals.
(§3) The protocol for screening is shown schematically in FIG. 5A. HEK293 cells transiently transfected with either the human 5HT7 receptor (Hs.5HT7R) or the schistosome receptor (Sm.5HTR) were exposed to test ligands in a 96-well plate format. […] Luminescence was then read at a fixed time point (t=60 minutes, FIG. 5A). Hits were assigned as compounds that evoked a ≥50% decrease in luminescence output at the fixed time sampling point (FIG. 5B).

S. mansoni [1] = assay: Hepatic shift assay in infected mice; type: in vivo, Schistosoma mansoni; details: intraperitoneal, ergotamine 95, praziquantel 100, methylergometrine 50, lisuride 10, dihydroergotoxine 60 mg/kg, euthanized three hours later
Description: Female Swiss Webster mice were exposed to 200 S. mansoni cerceria (NMRI strain) at between 4-6 weeks old. For hepatic shift assays, infections were allowed to mature to 7 weeks, at which point mice were given test compounds by intraperitoneal injection and euthanized […]. Compounds were solubilized in 50 μL DMSO, and diluted in 200 μL 5% w/v trappsol (Cyclodextrin Technologies Development, THPB-p-31 g)+saline (NaCl 0.9%) solution. Immediately after being euthanized, mice were dissected to remove the liver from the portal vein, and the number of worms recovered from the portal vein, mesenteries and liver was recorded for each mouse.
Several experiments using a murine model of schistosomiasis were carried out in order to test the anthelmintic efficacy of Sm.5HTR ligands in vivo. First, the acute effect of drugs were assessed using a “heptic-shift” assay; mature parasites normally reside within the mesenteric vasculature, and upon exposure to anthelmintics they dislodge and are swept to the liver^12,13 where they may be cleared from the host^14 (FIG. 20B-F).
Given that the current anthelmintic therapy, praziquantel, disrupts worms and results in a rapid shift from the mesenteric vasculature to the liver (Melhorn et al., 1981) (FIG. 20B-F), it was hypothesized that Sm.5HTR ligands that disrupt parasite movement would cause a similar hepatic shift. Compounds were delivered by intraperitoneal injection and mice were euthanized three hours later in order to quantify the number of worms found in the mesentaries, portal vein or liver.

S. mansoni [2] = assay: Curative efficacy against schistosome infection in mice; type: in vivo, Schistosoma mansoni; details: one week
Description: Assays testing the curative efficacy of compounds against schistosome infection were performed on mice 6 weeks after exposure to cerceria. Drugs were dosed as follows. Ergotamine (95 mg/kg) was solubilized in 50 μL DMSO and diluted in 200 μL trappsol-saline and delivered by intraperitoneal injection twice a day for one week. Praziquantel (50 mg/kg) was similarly solubilized and injected intraperitoneally once a day for one week. The negative control cohort was given twice daily injections of DMSO (50 μL) added to 200 μL trappsol-saline solution. Mice were weighed and euthanized at 49 days post infection. Worms were harvested and counted as in the hepatic shift assay. Spleen and livers were weighed, and a segment of intestine was excised from the most distal region of the rectum to 10 cm above the cecum. The small and large intestines were separated by cutting immediately above and below the cecum. Each was cut lengthwise to expose the lumen and thoroughly washed in NaCl (1.2%) to remove excrement. Intestines were laid flat with the intestinal mucosa facing upwards and clamped between two glass plates to allow visual inspection of eggs using a stereo microscope.
Mice were injected with vehicle control (dmso), the current frontline anthelmintic (praziquantel) or ergotamine twice daily for one week at starting 42 days post infection.
All animals were sacrificed 49 days post infection, and worms were harvested by dissection of the mesenteric vasculature, portal vein and liver. […] Schistosomes lay large numbers of eggs within the host mesenteric system, and these progress through stages of development over approximately 5 days which can be scored looking at samples of the intestinal mucosa (Pellegrino et al., 1965). Therefore, it is possible to visually determine whether drug treatment has arrested parasite egg laying by observing a lack of developing eggs. Sections of both the large and small intestines were examined and eggs were manually counted and scored according to developmental stage (representative stages of embryo development shown in FIG. 20H-I, top).

Sm.5HTRL = Sm.5HTRL (Schistosoma mansoni, UniProt A0A173FEI8); assay: GloSensor cAMP assay, HEK293 cells transiently transfected with Sm.5HTRL; type: cell-based; details: antagonists 10 μM; 5-HT EC80 dose 0.8 μM (FIG. 8)
Chain of Sm.5HTRL (A0A173FEI8 entry or part of it): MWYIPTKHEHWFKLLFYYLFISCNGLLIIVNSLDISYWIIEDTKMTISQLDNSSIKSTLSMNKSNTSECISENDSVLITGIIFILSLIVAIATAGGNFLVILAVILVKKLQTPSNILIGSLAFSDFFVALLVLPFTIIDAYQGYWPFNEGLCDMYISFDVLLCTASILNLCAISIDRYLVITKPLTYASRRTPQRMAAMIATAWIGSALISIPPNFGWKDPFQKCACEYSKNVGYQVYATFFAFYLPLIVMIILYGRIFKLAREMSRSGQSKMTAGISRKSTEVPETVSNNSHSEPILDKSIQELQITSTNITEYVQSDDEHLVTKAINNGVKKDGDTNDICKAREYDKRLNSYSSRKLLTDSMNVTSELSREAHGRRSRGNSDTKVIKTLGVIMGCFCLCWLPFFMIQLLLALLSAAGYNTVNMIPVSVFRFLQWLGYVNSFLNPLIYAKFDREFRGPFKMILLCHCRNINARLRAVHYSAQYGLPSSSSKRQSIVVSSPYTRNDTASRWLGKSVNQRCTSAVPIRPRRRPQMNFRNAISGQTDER
Description: as §1, §2

Hs.5HT7R = molecular target: T1, Hs.5HT7R (Homo sapiens, UniProt P34969); assay: GloSensor cAMP assay, HEK293 cells transiently transfected with Hs.5HT7R; type: cell-based
T1 construct: host or cells: HEK293 (ATCC CRL-1573.3), transient, pCS2(−), co-transfected with GloSensor
T1 sequence (P34969 1-445 isoform P34969-2): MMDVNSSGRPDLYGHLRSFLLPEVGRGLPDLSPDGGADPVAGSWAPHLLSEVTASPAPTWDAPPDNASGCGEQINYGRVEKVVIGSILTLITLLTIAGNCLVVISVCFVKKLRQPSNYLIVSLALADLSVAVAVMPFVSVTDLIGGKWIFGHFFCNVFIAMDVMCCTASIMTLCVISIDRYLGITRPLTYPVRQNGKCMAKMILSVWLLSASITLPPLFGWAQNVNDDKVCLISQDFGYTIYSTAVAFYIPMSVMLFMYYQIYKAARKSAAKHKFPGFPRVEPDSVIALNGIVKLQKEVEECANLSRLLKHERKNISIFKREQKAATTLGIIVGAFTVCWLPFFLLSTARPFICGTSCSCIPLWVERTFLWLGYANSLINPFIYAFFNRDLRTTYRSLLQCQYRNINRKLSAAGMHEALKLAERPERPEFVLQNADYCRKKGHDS
Description: as §1, §2, §3

[3] = system: S. mansoni schistosomules; assay: Schistosomule contractility assay; type: cell-based; details: Schistosoma mansoni, read-out: IC50, inhibition of 5-HT evoked contractions
Description: FIGS. 14A-14F. […] Effects of selected ligands on schistosomules. […] A contractile cycle is defined when a deviation of ≥20% of the average body length (dashed lines) occurs.
Biomphalaria glabrata (M-line) snails exposed to Schistosoma mansoni miracidia (Strain PR-1) were obtained from BEI Resources (Cat. number NR-21961) and cercaria were shed following exposure to light (1.5 hours). Cercaria were manually transformed into schistosomula by vortexing (3×45 seconds, each separated by 3 minutes on ice) and tails were removed by gradient centrifugation (24 mL Percoll, 4 mL 10×EMEM, 1.5 ml penicillin-streptomycin, 1 mL of 1M HEPES in 0.85% NaCl, 9.5 ml distilled water) at 500 g/15 minutes at 4° C. Supernatant containing tails was discarded, and schistosomules were resuspended in Basch media and incubated (37° C., 5% CO2) overnight before conducting mobility assays. For contractility experiments, somules were incubated in 5-HT free Basch media to resolve a basal contractility rate. […] Schistosomules were incubated in 24 well plates (about 200 schistosomules/0.5 mL media per well) for 30 minutes (37° C./5% CO2) prior to acquiring videos of schistosome movement (1 minute recordings/well) using a Nikon Coolpix 5700 camera affixed to a Nikon Eclipse TS100 microscope (10× objective). The WrmTrck plugin for ImageJ was used to quantify worm mobility (El-Shehabi et al., 2012). Briefly, the major axis of each schistosomule body length was extracted from the raw output of WrmTrck and an average length was determined for the duration of the recording. Contractions were quantified by determining the number of episodes during which the worm body length deviated from the average by over 20%. S. mansoni protocols were approved by the Iowa State University Institutional Biosafety Committee.

adult schistosomes = assay: Adult schistosome mobility assay (Example 1); type: cell-based, Schistosoma mansoni

Chain of Sm.5HTR (G4V5G4 entry or part of it): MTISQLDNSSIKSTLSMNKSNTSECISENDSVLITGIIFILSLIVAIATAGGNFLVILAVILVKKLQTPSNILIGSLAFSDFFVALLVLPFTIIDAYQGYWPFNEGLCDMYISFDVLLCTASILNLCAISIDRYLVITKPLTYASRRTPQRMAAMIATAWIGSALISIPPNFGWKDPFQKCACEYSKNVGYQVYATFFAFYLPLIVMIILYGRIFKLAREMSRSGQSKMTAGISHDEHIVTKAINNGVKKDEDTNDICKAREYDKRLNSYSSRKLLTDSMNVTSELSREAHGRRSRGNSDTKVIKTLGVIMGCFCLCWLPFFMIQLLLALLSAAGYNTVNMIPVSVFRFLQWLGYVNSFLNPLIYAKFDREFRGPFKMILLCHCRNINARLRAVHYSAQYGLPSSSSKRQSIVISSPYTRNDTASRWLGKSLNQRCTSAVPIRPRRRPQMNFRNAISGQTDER

SMILES	modulation of Sm.5HTR receptor activity (Sm.5HTR; doses that would convey an antiparasitic effect, FIGS. 10A and E)	% of worm burden found in the liver (S. mansoni [1]) [%]	protection from liver and spleen enlargement (S. mansoni [2]; infected mice, praziquantel 50 mg/kg i.p. once a day)	decrease in intestinal egg counts (S. mansoni [2]; mice, ergotamine 95 mg/kg twice a day, praziquantel 50 mg/kg once a day, i.p., versus vehicle control) [%]	selectivity Sm.5HTR versus Hs.5HT7R (IC50 (Hs.5HT7R)/IC50 (Sm.5HTR)), in words (Sm.5HTR; antagonism of 5-HT evoked cAMP, FIGS. 7, 12, 13)	potency (IC50) at Sm.5HTR, lower right quadrant of FIG. 13 (Sm.5HTR; inhibition of cAMP generation)	IC50 (Sm.5HTR; read-out: IC50, antagonism of 5-HT evoked cAMP generation at Sm.5HTR, 5-HT at EC80, F22 sensor, IBMX) [nM]	inhibition of 5-HT evoked cAMP generation through Sm.5HTRL (Sm.5HTRL)	effect on Hs.5HT7 (Hs.5HT7R; concentrations up to 50 μM)	potency (IC50) at Hs.5HT7R, lower right quadrant of FIG. 13 (Hs.5HT7R; inhibition of cAMP generation)	IC50 [3] [nM]	effect on 5-HT stimulated movement of adult worms (adult schistosomes; 5-HT 100 μM, male and female worms (FIG. 15G-I))	effect on basal movement of adult worms (adult schistosomes; no 5-HT, male and female worms (FIG. 15D-F))
O=C(C1CCCCC1)N1CC(=O)N2CCc3ccccc3C2C1 (stereo not shown) [PZQ, praziquantel]	did not reveal any modulation of receptor activity	68.8±14.1	no significant protection from liver and spleen enlargement	99	–	–	–	–	–	–	–	–	–
COc1cc2c(cc1OC)[C@@H]1Cc3ccc(OC)c(OC)c3CN1CC2 [rotundine]	–	–	–	–	clear selectivity for Sm.5HTR	sub-μM potency	701 ± 207	inhibited 5-HT evoked cAMP generation through Sm.5HTRL	lacking any effect	supra-μM potency	≤ 1000	inhibited the 5-HT evoked increases in worm movement	markedly inhibited worm movements at rest
